From patent US6737383B1, “Herbicidal oxadiazolidines” (priority 1999, dated 2004)

Legend:
velvetleaf = experiment: Test B pre/postemergence velvetleaf; assay type: in vivo, Abutilon theophrasti
Summary of the method: (§1)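 Herbicidal effect was estimated by eye on a ten-point control scale after plants spent twelve to sixteen days in a greenhouse following soil or foliar treatment. Foliar sprays targeted plants at one to four leaves; all doses were formulated in a non-phytotoxic solvent with surfactant.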

surinam grass = experiment: Test B pre/postemergence surinam grass; assay type: in vivo, Brachiaria decumbens
Summary of the method: as §1

duck salad = experiment: Test B flood test duck salad; assay type: in vivo, Heteranthera limosa
Summary of the method: (§2)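 Each value is a visual injury score relative to controls, with 10 meaning complete control and 0 no effect. Evaluation took place twelve to sixteen days after the 2-leaf-stage plants were treated and kept in the greenhouse.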

giant foxtail = experiment: Test B pre/postemergence giant foxtail; assay type: in vivo, Setaria faberii
Summary of the method: as §1

rape = experiment: Test B pre/postemergence rape; assay type: in vivo, Brassica napus
Summary of the method: as §1

rice = experiment: Test B flood test rice; assay type: in vivo, Oryza sativa
Summary of the method: as §2

pigweed = experiment: Test B pre/postemergence pigweed; assay type: in vivo, Amaranthus retroflexus
Summary of the method: as §1

wheat = experiment: Test B pre/postemergence wheat; assay type: in vivo, Triticum aestivum
Summary of the method: as §1

crabgrass = experiment: Test B pre/postemergence crabgrass; assay type: in vivo, Digitaria sanguinalis
Summary of the method: as §1

corn = experiment: Test B pre/postemergence corn; assay type: in vivo, Zea mays
Summary of the method: as §1

wild oat = experiment: Test B pre/postemergence wild oat; assay type: in vivo, Avena fatua
Summary of the method: as §1

purple nutsedge = experiment: Test B pre/postemergence purple nutsedge; assay type: in vivo, Cyperus rotundus
Summary of the method: as §1

blackgrass = experiment: Test B pre/postemergence blackgrass; assay type: in vivo, Alopecurus myosuroides
Summary of the method: as §1

bedstraw = experiment: Test B pre/postemergence bedstraw; assay type: in vivo, Galium aparine
Summary of the method: as §1

soybean = experiment: Test B pre/postemergence soybean; assay type: in vivo, Glycine max
Summary of the method: as §1

morningglory = experiment: Test B pre/postemergence morningglory; assay type: in vivo, Ipomoea hederacea
Summary of the method: as §1

[1] = Postemergence, Rate 62 g/ha, scale 0 to 10, 0 is no effect, 10 is complete control
[2] = Postemergence, Rate 250 g/ha, scale 0 to 10, 0 no effect, 10 complete control
[3] = Preemergence, Rate 62 g/ha, scale 0 to 10 (0 no effect, 10 complete control)
[4] = Preemergence, Rate 125 g/ha, scale 0 to 10 (0 no effect, 10 complete control)
[5] = Preemergence, Rate 250 g/ha, scale of 0 to 10 where 0 is no effect and 10 is complete control
[6] = Preemergence, Rate 500 g/ha, scale 0 (no effect) to 10 (complete control)
[7] = Rate 125 g/ha, Postemergence, scale 0 to 10, 0 no effect, 10 complete control
[8] = Rate 500 g/ha, Postemergence, scale 0 to 10, 0 no effect, 10 complete control
[9] = Rate 125 g/ha, Postemergence section (flood test species), scale 0 to 10, 0 no effect, 10 complete control
[10] = Rate 500 g/ha, listed under Postemergence (flood test species), scale 0 to 10, 0 no effect, 10 complete control
[11] = flood test, listed under Postemergence, Rate 250 g/ha, scale 0 to 10, 0 no effect, 10 complete control

Structure (SMILES): CC(C)N(C(=O)n1oc(=O)n(Cc2ccccc2)c1=O)c1ccc(F)cc1F [Compound 79]
- Velvetleaf plant response rating (velvetleaf; [1]): 0
- Velvetleaf plant response rating (velvetleaf; [2]): 0
- Velvetleaf plant response rating (velvetleaf; [3]): 0
- Plant response rating, Velvetleaf (velvetleaf; [4]): 0
- Plant response rating, Velvetleaf (velvetleaf; [5]): 0
- Velvetleaf plant response rating (velvetleaf; [6]): 3
- Velvetleaf plant response rating (velvetleaf; [7]): 0
- Velvetleaf plant response rating (velvetleaf; [8]): 3
- B. signalgrass plant response rating (surinam grass; [1]): 0
- B. signalgrass plant response rating (surinam grass; [2]): 0
- B. signalgrass plant response rating (surinam grass; [3]): 2
- Plant response rating, B. signalgrass (surinam grass; [4]): 0
- Plant response rating, B. signalgrass (surinam grass; [5]): 3
- B. signalgrass plant response rating (surinam grass; [6]): 5
- B. signalgrass plant response rating (surinam grass; [7]): 0
- B. signalgrass plant response rating (surinam grass; Rate 500 g/ha, Postemergence, scale of 0 to 10 where 0 is no effect and 10 is complete control): 0
- Ducksalad plant response rating (duck salad; [1]): 0
- Ducksalad plant response rating (duck salad; [9]): 0
- Ducksalad plant response rating (duck salad; [10]): 3
- Ducksalad plant response rating (duck salad; [11]): 0
- Giant foxtail plant response rating (giant foxtail; [1]): 0
- Giant foxtail plant response rating (giant foxtail; [2]): 3
- Giant foxtail plant response rating (giant foxtail; [3]): 4
- Plant response rating, Giant foxtail (giant foxtail; [4]): 8
- Plant response rating, Giant foxtail (giant foxtail; [5]): 9
- Giant foxtail plant response rating (giant foxtail; [6]): 9
- Giant foxtail plant response rating (giant foxtail; [7]): 2
- Giant foxtail plant response rating (giant foxtail; [8]): 4
- Rape plant response rating (rape; [1]): 0
- Rape plant response rating (rape; [2]): 0
- Rape plant response rating (rape; [3]): 0
- Plant response rating, Rape (rape; [4]): 0
- Plant response rating, Rape (rape; [5]): 0
- Rape plant response rating (rape; [6]): 0
- Rape plant response rating (rape; [7]): 0
- Rape plant response rating (rape; [8]): 3
- Rice plant response rating (rice; [1]): 0
- Rice plant response rating (rice; [9]): 0
- Rice plant response rating (rice; [10]): 3
- Rice plant response rating (rice; [11]): 0
- Redroot pigweed plant response rating (pigweed; [1]): 0
- Redroot pigweed plant response rating (pigweed; [2]): 3
- Redroot pigweed plant response rating (pigweed; [3]): 0
- Plant response rating, Redroot pigweed (pigweed; [4]): 4
- Plant response rating, Redroot pigweed (pigweed; [5]): 7
- Redroot pigweed plant response rating (pigweed; [6]): 10
- Redroot pigweed plant response rating (pigweed; [7]): 0
- Redroot pigweed plant response rating (pigweed; [8]): 4
- Wheat plant response rating (wheat; [1]): 0
- Wheat plant response rating (wheat; [2]): 0
- Wheat plant response rating (wheat; [3]): 0
- Plant response rating, Wheat (wheat; [4]): 0
- Plant response rating, Wheat (wheat; [5]): 0
- Wheat plant response rating (wheat; [6]): 2
- Wheat plant response rating (wheat; [7]): 0
- Wheat plant response rating (wheat; [8]): 0
- Crabgrass plant response rating (crabgrass; [1]): 3
- Crabgrass plant response rating (crabgrass; [2]): 4
- Crabgrass plant response rating (crabgrass; [3]): 2
- Plant response rating, Crabgrass (crabgrass; [4]): 7
- Plant response rating, Crabgrass (crabgrass; [5]): 9
- Crabgrass plant response rating (crabgrass; [6]): 10
- Crabgrass plant response rating (crabgrass; [7]): 4
- Crabgrass plant response rating (crabgrass; [8]): 8
- Corn plant response rating (corn; [1]): 0
- Corn plant response rating (corn; [2]): 0
- Corn plant response rating (corn; [3]): 0
- Plant response rating, Corn (corn; [4]): 0
- Plant response rating, Corn (corn; [5]): 0
- Corn plant response rating (corn; [6]): 0
- Corn plant response rating (corn; [7]): 0
- Corn plant response rating (corn; [8]): 0
- Wild oats plant response rating (wild oat; [1]): 0
- Wild oats plant response rating (wild oat; [2]): 0
- Wild oats plant response rating (wild oat; [3]): 0
- Plant response rating, Wild oats (wild oat; [4]): 0
- Plant response rating, Wild oats (wild oat; [5]): 3
- Wild oats plant response rating (wild oat; [6]): 4
- Wild oats plant response rating (wild oat; [7]): 0
- Wild oats plant response rating (wild oat; [8]): 0
- Nutsedge plant response rating (purple nutsedge; [1]): 0
- Nutsedge plant response rating (purple nutsedge; [2]): 0
- Nutsedge plant response rating (purple nutsedge; [3]): 0
- Plant response rating, Nutsedge (purple nutsedge; [4]): 0
- Plant response rating, Nutsedge (purple nutsedge; [5]): 0
- Nutsedge plant response rating (purple nutsedge; [6]): 0
- Nutsedge plant response rating (purple nutsedge; [7]): 0
- Nutsedge plant response rating (purple nutsedge; [8]): 0
- Blackgrass plant response rating (blackgrass; [1]): 0
- Blackgrass plant response rating (blackgrass; [2]): 3
- Blackgrass plant response rating (blackgrass; [3]): 0
- Plant response rating, Blackgrass (blackgrass; [4]): 2
- Plant response rating, Blackgrass (blackgrass; [5]): 6
- Blackgrass plant response rating (blackgrass; [6]): 6
- Blackgrass plant response rating (blackgrass; [7]): 0
- Blackgrass plant response rating (blackgrass; [8]): 3
- Bedstraw plant response rating (bedstraw; [1]): 3
- Bedstraw plant response rating (bedstraw; [2]): 7
- Bedstraw plant response rating (bedstraw; [3]): 0
- Plant response rating, Bedstraw (bedstraw; [4]): 0
- Plant response rating, Bedstraw (bedstraw; [5]): 0
- Bedstraw plant response rating (bedstraw; [6]): 0
- Bedstraw plant response rating (bedstraw; [7]): 3
- Bedstraw plant response rating (bedstraw; [8]): 8
- Soybean plant response rating (soybean; [1]): 0
- Soybean plant response rating (soybean; [2]): 1
- Soybean plant response rating (soybean; [3]): 0
- Plant response rating, Soybean (soybean; [4]): 0
- Plant response rating, Soybean (soybean; [5]): 0
- Soybean plant response rating (soybean; [6]): 0
- Soybean plant response rating (soybean; [7]): 1
- Soybean plant response rating (soybean; [8]): 2
- Morningglory plant response rating (morningglory; [1]): 5
- Morningglory plant response rating (morningglory; [2]): 7
- Morningglory plant response rating (morningglory; [3]): 0
- Plant response rating, Morningglory (morningglory; [4]): 0
- Plant response rating, Morningglory (morningglory; [5]): 0
- Morningglory plant response rating (morningglory; [6]): 0
- Morningglory plant response rating (morningglory; [7]): 5
- Morningglory plant response rating (morningglory; [8]): 8
